{
  "source": "patent US20120245193A1",
  "about": "“PER[…] μ OPIOID ANTAGONISTS” (Alkermes, Inc., priority 2011, published 2012)",
  "key": {"[1]": {"test_system": "patients diagnosed with opioid-induced bowel dysfunction (OBD)", "assay": "Multicenter, multi-dose study in patients with opioid-induced bowel dysfunction", "assay_type": "in vivo, human", "protocol": "In this multicenter, multi-dose study, 87 patients diagnosed with opioid-induced bowel dysfunction (OBD) during treatment with opioids for chronic, non-cancer pain were randomized to receive escalating doses of Compound-1 (1-100 mg), or placebo with a pre-defined dose escalation schedule. […] (FIG. 8).\nThe mean change from baseline in CSBMs per week for patients receiving 100 mg Compound-1 was 3.6 versus 0.8 in the placebo group (p=0.006), or a net increase of 2.8 CSBMs over placebo."}, "Male Swiss-Webster mice": {"test_system": "Male Swiss-Webster mice", "assay": "PGE2 test of gut motility (inhibition of morphine's blockade of PGE2-induced diarrhea)", "assay_type": "in vivo", "protocol": "A rodent model of gut motility model (Russell, et al., 1982; Eur. J. Pharm., 78: 255-61) was used to evaluate the bioavailability and efficacy of Compound-1 in […]. The PGE2 test of gut motility evaluates the inhibition of morphine's side effects. PGE2 (a prostaglandin) induces diarrhea in mice within 15 minutes of an intraperitoneal injection (0.1 mg/kg). Morphine (1 mg/kg, IP) blocks this effect. Peripherally-acting opioid antagonists inhibit morphine's blockade of PGE2-induced diarrhea. Male Swiss-Webster mice (n=10/group) were administered Compound-1 or a reference compound 15 minutes (IP or PO) prior to morphine and placed in a Plexiglas pie cage. PGE2 was administered 30 minutes after morphine. Observations of diarrhea were made 15 minutes after PGE2 administration. Duration of action was tested by adjusting the time between Compound-1 and morphine administration. FIGS. 2 and 3 show the effectiveness of reference compound methylnaltrexone (MNTX) and Compounds 1-4 to inhibit opioid-induced delay in gut motility by oral and IP administration.\n(NTX represents naltrexone)."}},
  "data": [
    {"compound": "C[N+]1(CC2CC2)CC[C@]23CC(=O)CC[C@@]2(O)[C@H]1Cc1ccc(C(N)=O)c(O)c13", "note": "(stereo partly drawn) [Compound-1]", "values": [
      {"measurement": "change from baseline in number of average spontaneous bowel movements (SBMs) in comparison to placebo", "setting": "[1]; 30 mg dose", "result": "statistically significant increase"},
      {"measurement": "net increase of CSBMs over placebo", "setting": "[1]; 100 mg", "result": 2.8, "unit": "CSBMs"},
      {"measurement": "average number of complete spontaneous bowel movements (CSBMs) per week from baseline as compared to placebo", "setting": "[1]; 100 mg dose", "result": "clinically meaningful and statistically significant increase"},
      {"measurement": "change from baseline in number of average spontaneous bowel movements (SBMs) in comparison to placebo", "setting": "[1]; 100 mg dose", "result": "statistically significant increase"},
      {"measurement": "net increase of SBMs over placebo", "setting": "[1]; 100 mg once-daily", "result": 3.9, "unit": "SBMs"},
      {"measurement": "mean change from baseline in the average number of SBMs per week", "setting": "[1]; 100 mg once-daily, placebo 0.7, p=0.003", "result": 4.6, "unit": "SBMs per week"},
      {"measurement": "mean change from baseline in CSBMs per week", "setting": "[1]; 100 mg, placebo 0.8, p=0.006", "result": 3.6, "unit": "CSBMs per week"},
      {"measurement": "opioid use", "setting": "[1]; escalating doses 1-100 mg", "result": "no increase in opioid use"},
      {"measurement": "reversal of analgesia as measured by change in Numerical Pain Rating Scale (NPRS) scores", "setting": "[1]; escalating doses 1-100 mg", "result": "no reversal of analgesia"},
      {"measurement": "duration of action compared with MNTX", "setting": "Male Swiss-Webster mice; minimal effective PO dose of Compound-1 vs minimal effective IP dose of MNTX, FIG. 7", "result": "longer duration of action than MNTX"},
      {"measurement": "dose relative to methylnaltrexone at which morphine's effects are blocked", "setting": "Male Swiss-Webster mice; oral administration, FIG. 6", "result": 3, "unit": "fold lower"},
      {"measurement": "duration of blocking morphine's effects", "setting": "Male Swiss-Webster mice; oral administration, FIG. 6, compared with methylnaltrexone", "result": "up to 4 hours"}
    ]}
  ]
}
